Counter-ions that a name gives are not always drawn.
target: Nicotinic Acetylcholine α4β2 Receptor (UniProt P09483+P12390); assay: Binding assay for human or rat nicotinic acetylcholine α4β2 receptor ([3H]Cytisine displacement); details: [3H]Cytisine 2.5 nM; rat brain frontal cortex or recombinant human receptor in CHO cells (not specified which); read-out: Ki
Procedure: Binding Assay for Human or Rat Nicotinic Acetylcholine α4β2 Receptor
• Receptor source: Rat brain frontal cortex or recombinant human cDNA expressed in CHO cells • Radioligand: [^3H]Cytisine 15-40 Ci/mmole • Final ligand concentration—[2.5 nM] • Non-specific determinant: Epibatidine—[0.1 μM] • Reference compound: Epibatidine • Positive control: Epibatidine Incubation Conditions:
Increasing concentrations of test compounds or standard were incubated with membrane receptors and radioligand in 120 mM NaCl, 2.5 mM KCl, 1 mM CaCl2, 1 mM MgCl2 and 50 mM TRIS-HCl (pH 7.4) for 60 minutes at room temperature. The reaction was terminated by rapid vacuum filtration onto the glass fiber filters. Radioactivity trapped onto the filters was determined and compared to the control values in order to ascertain any interactions of the test compound(s) with either cloned human or rat receptor binding site.
Literature Reference: Bunnelle W. H., Daanen J. F., Ryther K. B., Schrimpf M. R., Dart M. J., Gelain A., Meyer M. D., Frost J. M., Anderson D. J., Buckley M., Curzon P., Cao Y-J., Puttfarcken P., Searle X., Ji J., Putman C. B., Surowy C., Toma L. and Barlocco D. Structure-Activity Studies and Analgesic Efficacy of N-(3-Pyridinyl)-Bridged Bicyclic Diamines, Exceptionally Potent Agonists at Nicotinic Acetylcholine Receptors. J. Med. Chem. 2007, 50, […].

SMILES | Ki [nM]
CNCC1CC2CC2N1c1cnc2ccccc2c1 (stereo not drawn) [Example 31, N-(2-(quinolin-3-yl)-2-azabicyclo[3.1.0]hex-3-ylmethyl) methylamine fumarate] | 1650
NCC1CC2CC2N1c1cncc(Sc2ccccc2)c1 (stereo not drawn) [Example 16, [2-(5-Phenylsulfanylpyridin-3-yl)-2-azabicyclo[3.1.0]hex-3-yl]methylamine fumarate] | 451
NCC1CC2CC2N1c1cncnc1.O=C(O)/C=C/C(=O)O (stereo not drawn) [Example 22, N-(2-(pyrimidin-5-yl)-2-azabicyclo[3.1.0]hex-3-ylmethyl) amine fumarate] | 58.1
CNCC1CC2CC2N1c1cncc(C(F)(F)F)c1 (stereo not drawn) [Example 30, N-(2-(3-trifluoromethylpyridin-5-yl)-2-azabicyclo[3.1.0]hex-3-ylmethyl) methylamine fumarate] | 247
CNCC1CC2CC2N1c1cncc(OC(C)C)c1 (stereo not drawn) [Example 15, N-[2-(5-Isopropoxypyridin-3-yl)-2-azabicyclo[3.1.0]hex-3-ylmethyl]methylamine] | 383
CNCC1CC2CC2N1c1cncc(OC)c1 (stereo not drawn) [Example 14, N-[2-(5-Methoxypyridin-3-yl)-2-azabicyclo[3.1.0]hex-3-ylmethyl]methylamine fumarate] | 179
CCNCC1CC2CC2N1c1cncc(Br)c1 (stereo not drawn) [Example 5, N-[2-(5-Bromopyridin-3-yl)-2-azabicyclo[3.1.0]hex-3-ylmethyl]ethylamine tartarate] | 700
NCC1CC2CC2N1C(=O)c1ccco1.O=C(O)C(O)C(O)C(=O)O (stereo not drawn) [Example 35, (3-Aminomethyl-2-aza bicyclo[3.1.0]hex-2-yl) furan-2-yl methanone tartrate] | 38.7
CNCC1CC2CC2N1c1nccnc1O (stereo not drawn) [Example 20, N-[2-(3-Hydroxypyrazin-2-yl)-2-azabicyclo[3.1.0]hex-3-ylmethyl] methylamine] | 13
CNCC1CC2CC2N1c1cncc(C)c1 (stereo not drawn) [Example 27, N-(2-(3-methylpyridin-5-yl)-2-azabicyclo[3.1.0]hex-3-ylmethyl)methyl amine bistartarate] | 253
CNCC1CC2CC2N1c1cncc(Cl)c1.O=C(O)/C=C/C(=O)O (stereo not drawn) [Example 12, N-[2-(5-Chloropyridin-3-yl)-2-azabicyclo[3.1.0]hex-3-ylmethyl]methylamine fumarate] | 77.3

Further lines, results first:

Ki [nM] | SMILES
135 | NCC1CC2CC2N1c1cnc2ccccc2c1 (stereo not drawn) [Example 29, N-(2-(quinolin-3-yl)-2-azabicyclo[3.1.0]hex-3-ylmethyl) amine fumarate]
681 | NCC1CC2CC2N1c1ccc(C(F)(F)F)nc1 (stereo not drawn) [Example 24, N-(2-(2-trifluoromethylpyridin-5-yl)-2-azabicyclo[3.1.0]hex-3-ylmethyl) amine fumarate]
41.7 | CNCC1CC2CC2N1C(=O)c1ccco1 (single isomer, unassigned) [Example 3, Furan-2-yl-(3-methylaminomethyl-2-azabicyclo[3.1.0]hex-2-yl)methanone tartarate]
140 | NCC1CC2CC2N1c1cncc(C(F)(F)F)c1 (stereo not drawn) [Example 28, N-(2-(3-trifluoromethylpyridin-5-yl)-2-azabicyclo[3.1.0]hex-3-ylmethyl) amine fumarate]
17.8 | NCC1CC2CC2N1C(=O)c1cncc(Br)c1 (stereo not drawn) [Example 36, (3-Aminomethyl-2-azabicyclo[3.1.0]hex-2-yl) (5-bromo pyridin-3-yl) methanone tartrate]
11.6 | NCC1CC2CC2N1C(=O)c1ccccn1 (stereo not drawn) [Example 37, (3-Aminomethyl-2-azabicyclo[3.1.0]hex-2-yl) pyridin-2-yl methanone tartrate]
109 | NCC1CC2CC2N1C(=O)c1ccncc1 (stereo not drawn) [Example 39, (3-Aminomethyl-2-aza-bicyclo[3.1.0]hex-2-yl) pyridin-4-yl methanone tartarate]
38.3 | CNCC1CC2CC2N1C(=O)c1cc2ccccc2o1 (stereo not drawn) [Example 32, Benzofuran-2-yl-(3-methylaminomethyl-2-azabicyclo[3.1.0]hex-2-yl)methanone tartrate]
55 | NCC1CC2CC2N1C(=O)c1cc2ccccc2[nH]1 (stereo not drawn) [Example 34, (3-Aminomethyl-2-azabicyclo[3.1.0]hex-2-yl)-(1H-indol-2-yl)-methanone]
45 | NCC1CC2CC2N1C(=O)c1cccnc1 (stereo not drawn) [Example 38, (3-Aminomethyl-2-aza bicyclo[3.1.0]hex-2-yl) pyridin-3-yl methanone tartarate]
5.7 | Cc1cncc(N2C(CN)CC3CC32)c1 (stereo not drawn) [Example 26, N-(2-(3-methylpyridin-5-yl)-2-azabicyclo[3.1.0]hex-3-ylmethyl) amine fumarate]
3000 | CNCC1CC2CC2N1C(=O)c1cc2cccc(Br)c2o1 (stereo not drawn) [Example 33, (7-Bromo benzofuran-2-yl)-(3-methylaminomethyl-2-azabicyclo[3.1.0]hex-2-yl) methanone tartrate]
6.9 | NCC1CC2CC2N1c1ccc(Cl)nc1 (stereo not drawn) [Example 25, N-(2-(2-chloropyridin-5-yl)-2-azabicyclo[3.1.0]hex-3-ylmethyl) amine fumarate]

system: not listed separately; assay: Rodent pharmacokinetic study; type: in vivo; details: Wistar, plasma; Wister rat/Male, 5 mg/kg Per-Oral vs 5 mg/kg Intravenous
Procedure: Rodent Pharmacokinetic Study
Three to five animals were housed in each cage. Animals were kept fasted over night and maintained on a 12 hours light/dark cycle. Three rats were dosed NCE orally (15 or 5 mg/kg) and intravenously (5 mg/kg) on day 0 and day 2
At each time point blood was collected by jugular vein. Plasma was stored frozen at −20° C. until analysis. The concentrations of the NCE compound in plasma were determined using LC-MS/MS method. Schedule time points: Pre dose 0.25, 0.5, 1, 1.5, 2, 3, 4, 6, 8, 10, 12 and 24 hours after dosing (n=3).
Pharmacokinetic parameters Cmax, Tmax, AUCt, T1/2 and Bioavailability were calculated by non-compartmental model using software WinNonlin version 5.0.1.

SMILES | bioavailability [%]
NCC1CC2CC2N1c1cncnc1.O=C(O)/C=C/C(=O)O (stereo not drawn) [Example 22, N-(2-(pyrimidin-5-yl)-2-azabicyclo[3.1.0]hex-3-ylmethyl) amine fumarate] | 89 ± 9
NCC1CC2CC2N1C(=O)c1ccco1.O=C(O)C(O)C(O)C(=O)O (stereo not drawn) [Example 35, (3-Aminomethyl-2-aza bicyclo[3.1.0]hex-2-yl) furan-2-yl methanone tartrate] | 92 ± 8

same assay, conditions: Wistar, plasma; Wister rat/Male, 5 mg/kg, Intravenous

SMILES | AUC(0-t) [ng·h/mL] | Cmax [ng/mL] | Tmax [min] | half-life [min]
NCC1CC2CC2N1c1cncnc1.O=C(O)/C=C/C(=O)O (stereo not drawn) [Example 22, N-(2-(pyrimidin-5-yl)-2-azabicyclo[3.1.0]hex-3-ylmethyl) amine fumarate] | 2250 ± 228 | 1380 ± 156 | 15 | 80.4 ± 4.2
NCC1CC2CC2N1C(=O)c1ccco1.O=C(O)C(O)C(O)C(=O)O (stereo not drawn) [Example 35, (3-Aminomethyl-2-aza bicyclo[3.1.0]hex-2-yl) furan-2-yl methanone tartrate] | 1420 ± 71 | 1780 ± 56 | 4.8 | 67.8 ± 9

same assay, conditions: Wistar, plasma; Wister rat/Male, 5 mg/kg, Per-Oral

SMILES | AUC(0-t) [ng·h/mL] | Cmax [ng/mL] | Tmax [min] | half-life [min]
NCC1CC2CC2N1c1cncnc1.O=C(O)/C=C/C(=O)O (stereo not drawn) [Example 22, N-(2-(pyrimidin-5-yl)-2-azabicyclo[3.1.0]hex-3-ylmethyl) amine fumarate] | 2020 ± 377 | 1100 ± 211 | 4.8 | 97.8 ± 6.6
NCC1CC2CC2N1C(=O)c1ccco1.O=C(O)C(O)C(O)C(=O)O (stereo not drawn) [Example 35, (3-Aminomethyl-2-aza bicyclo[3.1.0]hex-2-yl) furan-2-yl methanone tartrate] | 1310 ± 146 | 998 ± 175 | 19.8 ± 8.4 | 89.4 ± 15.6

system: Male Wister rats; assay: Object recognition task model; type: in vivo, rat; details: 0.3 mg/kg, p.o.
Procedure: Object Recognition Task Model
The cognition-enhancing properties of compounds of this invention were estimated using a model of animal cognition: the object recognition task model.
Male Wister rats (230-280 grams) obtained from N. I. N. (National Institute of Nutrition, Hyderabad, India) was used as experimental animals. Four animals were housed in each cage. […] Also the rats were habituated to individual arenas for 1 hour in the absence of any objects.
One group of 12 rats received vehicle (1 mL/Kg) orally and another set of animals received compound of the formula (I) either orally or i.p., before one hour of the familiar (T1) and choice trial (T2).
The experiment was carried out in a 50×50×50 cm open field made up of acrylic. In the familiarization phase, (T1), the rats were placed individually in the open field for 3 minutes, in which two identical objects (plastic bottles, 12.5 cm height×5.5 cm diameter) covered in yellow masking tape alone (a1 and a2) were positioned in two adjacent corners, 10 cm. from the walls. After 24 hours of the (T1) trial for long-term memory test, the same rats were placed in the same arena as they were placed in T1 trial. Choice phase (T2) rats were allowed to explore the open field for 3 minutes in presence of one familiar object (a3) and one novel object (b) (Amber color glass bottle, 12 cm high and 5 cm in diameter). Familiar objects presented similar textures, colors and sizes. During the T1 and T2 trial, explorations of each object (defined as sniffing, licking, chewing or having moving vibrissae whilst directing the nose towards the object at a distance of less than 1 cm) were recorded separately by stopwatch. Sitting on an object was not regarded as exploratory activity, however, it was rarely observed.
T1 is the total time spent exploring the familiar objects (a1+a2).
T2 is the total time spent exploring the familiar object and novel object (a3+b).
The object recognition test was performed as described by Ennaceur, A., Delacour, J., 1988, A new one-trial test for neurobiological studies of memory in rats—Behavioural data, Behav. Brain Res., 31, 47-59.

SMILES | Inference
NCC1CC2CC2N1C(=O)c1ccco1.O=C(O)C(O)C(O)C(=O)O (stereo not drawn) [Example 35, (3-Aminomethyl-2-aza bicyclo[3.1.0]hex-2-yl) furan-2-yl methanone tartrate] | Active

same assay, conditions: 0.3 mg/kg, p.o.; choice trial

SMILES | Exploration time mean ± S.E.M, Familiar object [s] | Exploration time mean ± S.E.M, Novel object [s]
NCC1CC2CC2N1C(=O)c1ccco1.O=C(O)C(O)C(O)C(=O)O (stereo not drawn) [Example 35, (3-Aminomethyl-2-aza bicyclo[3.1.0]hex-2-yl) furan-2-yl methanone tartrate] | 5.30 ± 1.05 | 14.90 ± 7.74

same assay, conditions: 1 mg/kg, p.o.

SMILES | Inference
CNCC1CC2CC2N1c1cncc(Cl)c1.O=C(O)/C=C/C(=O)O (stereo not drawn) [Example 12, N-[2-(5-Chloropyridin-3-yl)-2-azabicyclo[3.1.0]hex-3-ylmethyl]methylamine fumarate] | Active

same assay, conditions: 1 mg/kg, p.o.; choice trial

SMILES | Exploration time mean ± S.E.M, Familiar object [s] | Exploration time mean ± S.E.M, Novel object [s]
CNCC1CC2CC2N1c1cncc(Cl)c1.O=C(O)/C=C/C(=O)O (stereo not drawn) [Example 12, N-[2-(5-Chloropyridin-3-yl)-2-azabicyclo[3.1.0]hex-3-ylmethyl]methylamine fumarate] | 4.651 ± 0.619 | 16.70 ± 2.136

Reference: patent US8653071B2, “α4β2 neuronal nicotinic acetylcholine receptor ligands” (Suven Life Sciences Limited, priority 2009, dated 2014)
